Laboratory results as given in patent US20210322352A1, “COMPOSITION FOR IMPROVING ENDURANCE AND METHOD OF IMPROVING ENDURANCE USING THE SAME” (PHARMA FOODS INTERNATIONAL CO., LTD., priority 2020, published 2021).

Tests used:
male ICR mice = experiment: Measurement of limit running time using a treadmill; format: in vivo, mouse; settings: GABA training group vs training group, diet with 0.5% GABA
Procedure: (§1) Specifically, 10 week-old male ICR mice are classified into the group in which normal food is freely ingested and training is not carried out (control group), the group in which a diet of normal food added with 0.5% of GABA (1.8 g for human) is freely ingested and training is not carried out (GABA group), the group in which normal food is freely ingested and training is carried out (training group) and the group in which a diet of normal food added with 0.5% of GABA (1.8 g for human) is freely ingested and training is carried out (GABA training group) (9 mice in each group). During the test period, the above classified mice freely ingested about 2.7 to about 5.0 g/day of normal food or GABA-comprising food per one individual. Regarding the training group and the GABA training group, running was forced for 60 minutes on a schedule of 3 times a week (interval of 1 day or 2 days). This training was continued until 3 days after termination of the below-mentioned third running test. In the training, a treadmill for small animals (Meiquest Ltd.) was used with the gradient of 0 degree to force running at 25 m/minute running speed. Since a mouse will run at the speed of about 6 to 24 m/minute without a load, the running speed of 25 m/minute is a little faster than normal, i.e., low to moderate intensity.

[1] = test system: glycogen in a skeletal muscle (gastrocnemius muscle); experiment: Measurement of the amount of glycogen in a skeletal muscle; format: in vivo, mouse; settings: 0.5% GABA diet
Procedure: as §1

insulin in plasma = experiment: Measurement of the amount of insulin in plasma; format: in vivo, mouse; settings: 0.5% GABA diet
Procedure: (§2) Specifically, 10 week-old male ICR mice are classified into the group in which normal food is freely ingested and training is not carried out (control group), the group in which a diet of normal food added with 0.5% of GABA (1.8 g for human) is freely ingested and training is not carried out (GABA group), the group in which normal food is freely ingested and training is carried out (training group) and the group in which a diet of normal food added with 0.5% of GABA (1.8 g for human) is freely ingested and training is carried out (GABA training group) (9 mice in each group).
During the test period, the above classified mice freely ingested about 2.7 to about 5.0 g/day of normal food or GABA-comprising food per one individual. Regarding the training group and the GABA training group, running was forced for 60 minutes on a schedule of 3 times a week (interval of 1 day or 2 days). This training was continued until 3 days after termination of the below-mentioned third running test. In the training, a treadmill for small animals (Meiquest Ltd.) was used with the gradient of 0 degree to force running at 25 m/minute running speed. Since a mouse will run at the speed of about 6 to 24 m/minute without a load, the running speed of 25 m/minute is a little faster than normal, i.e., low to moderate intensity.
2 days after termination of the final training, blood of a mouse in a group is collected to measure the amount of insulin in plasma. The measurement of the amount of insulin in plasma was carried out as described below using Lbis (registered trademark) Insulin-Mouse T (FUJIFILM Wako Shibayagi Corporation).
96 well plate for turning an antibody into a solid phase was prepared and washed 4 times with a cleaning liquid. 100 μL of biotin binding anti-insulin antibody was added thereto and stirred. […] 100 μL of 1M sulphuric acid solution was respectively added to stop the reaction, measure absorbance (OD 450 nm) and calculate the amount of insulin in plasma.

PGC-1α protein = experiment: Relative expression of PGC-1α protein in a skeletal muscle (western blotting); format: in vivo, mouse; settings: gastrocnemius muscle
Procedure: as §1, with “[…] The amount of protein was quantified in accordance with the method of the TaKaRa BCA Protein Assay Kit (TAKARA BIO INC.) using bovine serum albumin as” for “Since”, “standard protein. […]” for “mouse will run at the speed of about 6 to 24 m/minute without a load, the running speed of 25 m/minute is a little faster than normal, i.e., low to moderate intensity.”

AMPK protein = experiment: Relative expression of AMPK protein in a skeletal muscle (western blotting); format: in vivo, mouse; settings: gastrocnemius muscle
Procedure: as §1, with “[…] The amount of protein was quantified in accordance with the method of the TaKaRa BCA Protein Assay Kit (TAKARA BIO INC.) using bovine serum albumin as” for “Since”, “standard protein. […]” for “mouse will run at the speed of about 6 to 24 m/minute without a load, the running speed of 25 m/minute is a little faster than normal, i.e., low to moderate intensity.”

phosphorylated AKT/AKT = experiment: Phosphorylated AKT/AKT ratio in a skeletal muscle (western blotting); format: in vivo, mouse; settings: gastrocnemius muscle
Procedure: as §1

mitochondrial DNA = experiment: Measurement of the amount of mitochondrial DNA in a skeletal muscle (real-time PCR); format: in vivo, mouse; settings: GABA training group vs control group, GABA group and training group
Procedure: as §2
During the test period, the above classified mice freely ingested about 2.7 to about 5.0 g/day of normal food or GABA-comprising food per one individual. Regarding the training group and the GABA training group, running was forced for 60 minutes on a schedule of 3 times a week (interval of 1 day or 2 days). […]
20 to 50 mg of tissue sample was taken out to a 2 mL plastic tube to extract DNA in accordance with the genome DNA purification protocol described in NucleoSpin® DNARapidLyse (TAKARA BIO INC.). The amount of relative expression of the amount of mitochondria with respect to mouse nuclear DNA was quantified with the real-time PCR method using Thermal Cycler Dice® Real TimeSystem II (TAKARA BIO INC.) and set as mitochondrial DNA amount.

myosin 2a protein = experiment: Relative expression of myosin 2a in a skeletal muscle (soleus muscle), western blotting; format: in vivo, mouse
Procedure: as §2
During the test period, the above classified mice freely ingested about 2.7 to about 5.0 g/day of normal food or GABA-comprising food per one individual. Regarding the training group and the GABA training group, running was forced for 60 minutes on a schedule of 3 times a week (interval of 1 day or 2 days). This training was continued until 3 days after termination of the below-mentioned third running test. […]
Two days after termination of the final training, a skeletal muscle (soleus muscle) tissue of mouse was grinded with a biomasher on ice. […] The protein concentration of the protein extraction liquid was measured with a protein assay BCA kit and dilution was carried out with a RIPA buffer so that the protein concentration of the protein extraction liquid would be 4 mg/ml. […]

skeletal muscle = settings: GABA in addition to whey protein vs whey protein alone; in training; J Clin Med Res. 2019; 11(6):428-434; cited from earlier work

NCCCC(=O)O [GABA, γ-aminobutyric acid]
amount of increase of running time due to a training (running time to exhaustion) (male ICR mice; fourth week, P=0.14): tendency to be enlarged | amount of increase of running time due to a training (running time to exhaustion) (male ICR mice; second week, P=0.04): significantly enlarged | amount of glycogen in the gastrocnemius muscle ([1]; GABA group vs control group, no training, P=0.09): tendency of increase | amount of glycogen in the gastrocnemius muscle ([1]; GABA training group vs training group, P=0.04): significantly increased | amount of insulin in plasma (insulin in plasma; GABA group vs control group, no training): decreased | amount of insulin in plasma (insulin in plasma; GABA training group vs control group): decreased | amount of insulin in plasma (insulin in plasma; GABA training group vs training group, P=0.07): decreased | amount of expression of PGC-1α protein in a skeletal muscle (PGC-1α protein; GABA training group vs training group, P=0.01): significantly increased | amount of expression of PGC-1α protein in a skeletal muscle (PGC-1α protein; vs control group (group not given, presumably GABA group)): tendency of increase | amount of expression of AMPK protein (AMPK protein; GABA training group vs control group, P=0.0008): increased | amount of expression of AMPK protein (AMPK protein; GABA training group vs training group): increased more than the training group | phosphorylated AKT/total AKT ratio in a skeletal muscle (phosphorylated AKT/AKT; GABA group vs control group): tendency to decrease | phosphorylated AKT/total AKT ratio in a skeletal muscle (phosphorylated AKT/AKT; GABA training group vs training group, P=0.0001): significantly decreased | mitochondrial DNA amount in a skeletal muscle (mitochondrial DNA): tendency of increase | amount of expression of myosin 2a protein in a skeletal muscle (soleus muscle) (myosin 2a protein; GABA group vs control group and training group): tendency to increase | amount of expression of myosin 2a protein in a skeletal muscle (soleus muscle) (myosin 2a protein; GABA training group vs the other 3 groups): significantly increased | amount of fat removed muscle (skeletal muscle): increases | muscle hypertrophy (skeletal muscle): stimulates more muscle hypertrophy
